Experimental data as given in ChEMBL document CHEMBL1155757, “Cytotoxicity of Ganoderma lucidum triterpenes” (J Nat Prod, 2001).
pIC50: −log10 of the molar value.

Assays:
Type in all cases: functional, cell-based
HepG2 = test: Cytotoxicity against human HepG2 cells
P388 = test: Cytotoxicity against mouse P388 cells
[1] = Cytotoxicity against human HepG2(2.2.15) cells
[2] = Cytotoxicity against human CCM2 cells
KB = test: Cytotoxicity against human KB cells

Work on `C[C@H](CC(=O)C[C@@H](C)[C@H]1CC(=O)[C@@]2(C)C3=C(C(=O)C[C@]12C)[C@@]1(C)CCC(=O)C(C)(C)[C@@H]1CC3=O)C(=O)O` [GANODERIC ACID E] yielded a pIC50 (HepG2) of 9.84, a pIC50 (P388) of 5.30 and a pIC50 [1] of 9.98. It also gave a pIC50 [2] of 4.51.

`C[C@H](CCC(=O)O)[C@H]1CC(=O)[C@@]2(C)C3=C(C(=O)C[C@]12C)[C@@]1(C)CC[C@H](O)C(C)(C)[C@@H]1C[C@@H]3O` [LUCIDENIC ACID N] gave a pIC50 (HepG2) of 9.69, a pIC50 (P388) of 7.92 and a pIC50 (KB) of 4.57. For the same compound, the pIC50 [1] was 8.78 and the pIC50 [2] was 4.45.

With `C[C@H](CCC(=O)O)[C@H]1CC(=O)[C@@]2(C)C3=C(C(=O)C[C@]12C)[C@@]1(C)CCC(=O)C(C)(C)[C@@H]1C[C@@H]3O` [LUCIDENIC ACID A] the pIC50 (HepG2) was 9.79, the pIC50 (P388) was 7.77 and the pIC50 (KB) was 4.77. For the same compound, the pIC50 [1] was 9.69 and the pIC50 [2] was 4.56.
